According to patent US5506256A, “Proline derivatives possessing prolyl endopeptidase-inhibitory activity” (Yoshitomi Pharmaceutical Industries, Ltd., priority 1990, dated 1996):

Legend:
elastase = biological target: T1, elastase (Sus scrofa, UniProt P00772); test: Determination of elastase-inhibitory activity; type: biochemical, swine; conditions: read-out: inhibition rate, elastase
T1 construct: purchased Sigma; host or cells: swine pancreas
Description: (§1) The methods for the measurement of inhibitory activities against various proteases and the method for calculating the inhibition rate are as follows.
Determination of elastase-inhibitory activity
Similarly, by following the procedure mentioned above, but employing a 1 mM Tris-HCl buffer (pH 8.5) as a buffer for measurement, a 0.2 μM solution of elastase (derived from swine pancreas, Sigma) in the same buffer as an enzyme solution and a 200 μM solution of 7-(N-succinyl-aranyl-prolyl-aranyl)-4-methylcoumarinamide (Peptide Institute, Inc.) in the same buffer as a substrate solution, each fluorescence (e1, e2 and e3) was determined, respectively.
(§2) Using the fluorescence x1, x2 and x3 measured in the abovementioned manner, the inhibitory rate against various proteases was calculated by the following formula where x stands for b, c, d, e or f: [formula]

chymotrypsin = biological target: T2, chymotrypsin (Bos taurus, UniProt P00766); test: Determination of chymotrypsin-inhibitory activity; type: biochemical, bovine; conditions: read-out: inhibition rate, chymotrypsin
T2 construct: purchased Sigma; host or cells: bovine pancreas
Description: as §1
Determination of chymotrypsin-inhibitory activity
Similarly, by following the procedure mentioned above, but employing a 50 mM Tris-HCl buffer (pH 8.0) as a buffer for measurement, a 0.2 μM solution of chymotrypsin (derived from bovine pancreas, Sigma) in the same buffer as an enzyme solution and a […] solution of 7-(N-succinyl-leucyl-leucyl-valyl-tyrosyl)-4-methylcoumarinamide (Peptide Institute, Inc.) in the same buffer as a substrate solution, each fluorescence (c1, c2 and c3) was determined, respectively.
as §2

cathepsin B = biological target: T3, cathepsin B (Bos taurus, UniProt P07688); test: Determination of cathepsin B-inhibitory activity; type: biochemical, bovine; conditions: read-out: inhibition rate, cathepsin B
T3 construct: purchased Sigma; host or cells: bovine spleen
Description: as §1
Determination of cathepsin B-inhibitory activity
Similarly, by following the procedure mentioned above, but employing a 100 mM sodium phosphate buffer (pH 6.0; containing 1.33 mM EDTA Na2) as a buffer for measurement, a 0.02 μM solution of cathepsin B (derived from bovine spleen, Sigma) in the same buffer as an enzyme solution and a 200 μM solution of 7-(N-benzyloxycarbonyl-phenylaranyl-arginyl)-4-methylcoumarinamide (Peptide Institute, Inc.) in the same buffer as a substrate solution, each fluorescence (f1, f2 and f3) was determined, respectively.
as §2

trypsin = biological target: T4, trypsin (Bos taurus, UniProt P00760); test: Determination of trypsin-inhibitory activity; type: biochemical, bovine; conditions: read-out: inhibition rate, trypsin
T4 construct: purchased Sigma; host or cells: bovine pancreas
T4 sequence (P00760 24-246): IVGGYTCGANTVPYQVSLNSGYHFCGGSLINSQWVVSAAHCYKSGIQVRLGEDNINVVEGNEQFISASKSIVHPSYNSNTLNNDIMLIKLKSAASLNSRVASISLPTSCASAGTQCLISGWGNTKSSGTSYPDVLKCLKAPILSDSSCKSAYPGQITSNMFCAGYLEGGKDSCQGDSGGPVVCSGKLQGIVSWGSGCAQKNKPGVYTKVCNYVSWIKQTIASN
Description: as §1
Determination of trypsin-inhibitory activity
In the present invention, a 50 mM Tris-HCl buffer (pH 8.0) was employed as a buffer for measurement.
To a mixture of the above-mentioned buffer (850 μl), a solution of the compounds of the present invention in the same buffer (50 μl) and a 0.02 μM solution of trypsin (derived from bovine pancreas, Sigma) in the same buffer (50 μl) was added a 200 μM solution of 7-(prolyl-phenylaranyl-arginyl)-4-methylcoumarinamide (Peptide Institute, Inc.) in the same buffer (50 μl),and the mixture was incubated at 30° C. for 1 hour. The reaction mixture was immersed in ice (0° C.) to terminate the reaction, and the fluorescence (b1) was determined 1 hour later (excitation at 370 nm and emission at 440 nm). Concurrently, there were conducted the experiment wherein, in the system above, the trypsin solution was substituted for a buffer alone, and the experiment wherein the solution of the compounds of the present invention was substituted for a buffer above. Each fluorescence (b2 and b3) was determined respectively.
as §2

leucine aminopeptidase = test: Determination of leucine aminopeptidase-inhibitory activity; type: biochemical, swine; set-up: unit not given here
Description: as §1
Determination of leucine aminopeptidase-inhibitory activity
Similarly, by following the procedure mentioned above, but employing a 50 mM Tris-HCl buffer (pH 8.0) as a buffer for measurement, a […] solution of leucine aminopeptidase (derived from swine kidney, Sigma) in the same buffer as an enzyme solution and a 200 μM solution of 7-leucyl-4-methyl-coumarinamide (Peptide Institute, Inc.) in the same buffer as a substrate solution, each fluorescence (d1, d2 and d3) was determined, respectively.
as §2

prolyl endopeptidase = biological target: T5, prolyl endopeptidase (Rattus norvegicus, UniProt O70196); test: Prolyl endopeptidase-inhibitory activity; type: biochemical; conditions: for inhibition at 0.1 µM / inhibition at 1 µM: read-out: inhibition rate, prolyl endopeptidase; for IC50: prolyl endopeptidase extracted from rat brain, pH 7.0, 30° C., read-out: IC50
T5 construct: prolyl endopeptidase extracted from rat brain; from tissue; host or cells: rat brain
T5 sequence (O70196 whole entry): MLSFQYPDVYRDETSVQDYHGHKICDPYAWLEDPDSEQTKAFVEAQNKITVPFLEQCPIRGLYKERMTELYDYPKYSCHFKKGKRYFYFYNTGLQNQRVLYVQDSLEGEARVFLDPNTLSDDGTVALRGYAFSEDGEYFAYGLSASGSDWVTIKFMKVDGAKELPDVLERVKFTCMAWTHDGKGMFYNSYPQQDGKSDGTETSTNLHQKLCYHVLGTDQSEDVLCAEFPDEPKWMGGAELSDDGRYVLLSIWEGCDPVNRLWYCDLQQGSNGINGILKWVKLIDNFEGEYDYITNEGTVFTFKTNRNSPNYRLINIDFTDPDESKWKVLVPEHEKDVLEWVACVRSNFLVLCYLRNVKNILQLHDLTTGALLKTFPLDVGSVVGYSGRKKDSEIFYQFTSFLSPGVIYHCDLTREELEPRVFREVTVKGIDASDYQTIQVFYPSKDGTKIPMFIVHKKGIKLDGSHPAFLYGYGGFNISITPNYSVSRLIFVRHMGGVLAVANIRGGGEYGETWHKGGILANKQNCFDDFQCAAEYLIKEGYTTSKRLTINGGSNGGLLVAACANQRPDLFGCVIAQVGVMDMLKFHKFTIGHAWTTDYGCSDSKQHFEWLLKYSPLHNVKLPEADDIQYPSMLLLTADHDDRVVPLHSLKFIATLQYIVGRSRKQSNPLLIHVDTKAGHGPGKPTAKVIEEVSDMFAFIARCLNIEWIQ
Description: Prolyl endopeptidase-inhibitory activity
A mixture of a 0.1M potassium sodium phosphate buffer (pH 7.0) (2675 μl), a solution of the compounds of the present invention in a 0.1M potassium sodium phosphate buffer (pH 7.0) (100 μl) and a solution of prolyl endopeptidase extracted from rat brain in a 25 mM sodium phosphate buffer (100 μl) [123 unit/1, pH 6.8, containing 1 mM dithiothreitol and 0.5 mM EDTA, prepared by the method described in J. Neurochem., 35, 527 (1980)]was preincubated at 30° C. for 30 minutes. Thereto was added a 0.2 mM solution of 7-(N-succinyl-glycyl-prolyl)-4-methylcoumarinamide (Peptide Institute, INC.) in a 0.1M potassium sodium phosphate buffer (pH 7.0) (125 μl), and the mixture was incubated at 30° C. for 1 hour. The reaction mixture was immersed in ice (0° C.) to terminate the reaction, and the fluorescence (a1) was determined ten minutes later (excitation at 370 nm and emission at 440 nm). Concurrently, there were conducted the experiment wherein, in the above system, the prolyl endopeptidase solution was substituted for a 25 mM sodium phosphate buffer (pH 6.8, containing 1 mM dithiothreitol and 0.5 mM EDTA) and the experiment wherein the solution of the compounds of the present invention was substituted for a 0.1M potassium sodium phosphate buffer (pH 7.0). Each fluorescence (a2 and a3) was determined respectively [See Tanpakushitsu Kakusan Koso, 29, 127 (1984)]. The prolyl endopeptidase-inhibition rate was calculated by the following formula, and IC50, a concentration of a compound producing 50% inhibition, was estimated by semilogarithmic graph paper. [formula] […]

T1 sequence (P00772 27-266): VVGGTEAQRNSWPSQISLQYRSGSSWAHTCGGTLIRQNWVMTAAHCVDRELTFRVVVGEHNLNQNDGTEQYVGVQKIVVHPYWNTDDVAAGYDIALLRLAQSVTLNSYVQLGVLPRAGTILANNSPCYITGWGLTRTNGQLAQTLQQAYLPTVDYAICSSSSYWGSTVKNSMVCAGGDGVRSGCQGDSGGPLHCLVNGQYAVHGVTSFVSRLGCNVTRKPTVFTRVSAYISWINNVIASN

SMILES | inhibition at 0.1 µM (elastase) | inhibition at 0.1 µM (chymotrypsin) | inhibition at 0.1 µM (cathepsin B) | inhibition at 0.1 µM (trypsin) | inhibition rate, leucine aminopeptidase (leucine aminopeptidase; 0.1 μM) | inhibition at 0.1 µM (prolyl endopeptidase) | IC50 (prolyl endopeptidase) | inhibition at 1 µM (elastase) | inhibition at 1 µM (chymotrypsin) | inhibition at 1 µM (cathepsin B) | inhibition at 1 µM (trypsin) | inhibition rate, leucine aminopeptidase (leucine aminopeptidase; 1 μM) | inhibition at 1 µM (prolyl endopeptidase)
COc1ccc(CNC(=O)N2CCC[C@H]2C(=O)N2CCC[C@H]2C(=O)C[S@+]([O-])c2ccc(OC)cc2)cc1 [Compound 24, (2S)-1-[N-(4-Methoxybenzylaminocarbonyl)-L-prolyl]-2-{[(S)-4-methoxyphenylsulfinyl]acetyl}pyrrolidine] | 0% | 0% | 0% | 0% | 0 | 99% | 0.5 nM | – | – | – | – | – | –
COc1ccc(CNC(=O)N2CCC[C@H]2C(=O)N2CCC[C@H]2C(=O)COc2ccc(OC)cc2)cc1 [Compound 25, (2S)-1-[N-(4-Methoxybenzylaminocarbonyl)-L-prolyl]-2-(4-methoxyphenoxyacetyl)pyrrolidine] | 0% | 0% | 0% | 0% | 0 | 97% | 2.5 nM | – | – | – | – | – | –
O=C(COc1ccc(Cl)cc1)[C@@H]1CCCN1C(=O)[C@@H]1CCCN1C(=O)CCc1ccccc1 [Compound 26, (2S)-2-(4-Chlorophenoxyacetyl)-1-[N-(3-phenylpropionyl)-L-prolyl]pyrrolidine] | – | – | – | – | – | – | 4.5 nM | 0% | 0% | 0% | 0% | 0 | 99%
O=C(COc1ccc(O)cc1)[C@@H]1CCCN1C(=O)[C@@H]1CCCN1C(=O)CCc1ccccc1 [Compound 27, (2S)-2-(4-Hydroxyphenoxyacetyl)-l-[N-(3-phenylpropionyl)-L-prolyl]pyrrolidine] | 0% | 0% | 0% | 0% | 0 | 96% | 2.5 nM | – | – | – | – | – | –
O=C(COc1ccc(Cl)cc1)[C@@H]1CCCN1C(=O)[C@@H]1CCCN1C(=O)NCc1ccc(Cl)cc1 [Compound 28, (2S)-1-[N-(4-Chlorobenzylaminocarbonyl)-L-prolyl]-2-(4-chlorophenoxyacetyl)pyrrolidine] | 0% | 0% | 0% | 0% | 0 | 97% | 15 nM | – | – | – | – | – | –
O=C(COc1ccc(F)cc1)[C@@H]1CCCN1C(=O)[C@@H]1CCCN1C(=O)NCc1ccc(F)cc1 [Compound 29, (2S)-1-[N-(4-Fluorobenzylaminocarbonyl)-L-prolyl]-2-(4-fluorophenoxyacetyl)pyrrolidine] | 0% | 0% | 0% | 0% | 0 | 99% | 0.1 nM | – | – | – | – | – | –
O=C(COc1ccccc1)[C@@H]1CCCN1C(=O)[C@@H]1CCCN1C(=O)NCc1ccc(Cl)cc1 [Compound 30, (2S)-1-[N-(4-Chlorobenzylaminocarbonyl)-L-prolyl]-2-(phenoxyacetyl)pyrrolidine] | 0% | 0% | 0% | 0% | 0 | 99% | 0.6 nM | – | – | – | – | – | –
CCCCCCCC(=O)N1CCC[C@H]1C(=O)N1CCC[C@H]1C(=O)COc1ccccc1 [Compound 31, (2S)-1-(N-Octanoyl-L-prolyl)-2-(phenoxyacetyl)pyrrolidine] | 0% | 0% | 0% | 0% | 0 | 97% | 4.5 nM | – | – | – | – | – | –
O=C(COCc1ccccc1)[C@@H]1CCCN1C(=O)[C@@H]1CCCN1C(=O)NCc1ccccc1 [Compound 32] | 0% | 0% | 0% | 0% | 0 | 96% | 1 nM | – | – | – | – | – | –
O=C(COc1ccccc1)[C@@H]1CCCN1C(=O)[C@@H]1CCCN1C(=O)COc1ccccc1 [Compound 46, (2S)-2-(Phenoxyacetyl)-1-[N-(phenoxyacetyl)-L-prolyl]pyrrolidine] | – | – | – | – | – | – | 60 nM | 0% | 0% | 0% | 0% | 0 | 93%
COc1ccc(OCC(=O)[C@@H]2CCCN2C(=O)[C@@H]2CCCN2C(=O)COc2ccccc2)cc1 [Compound 47, (2S)-2-(4-Methoxyphenoxyacetyl)-1-[N-(phenoxyacetyl)-L-prolyl]pyrrolidine] | – | – | – | – | – | – | 50 nM | 0% | 0% | 0% | 0% | 0 | 98%
COc1ccc(OCC(=O)[C@@H]2CCCN2C(=O)[C@@H]2CCCN2C(=O)CNc2ccccc2)cc1 [Compound 48, (2S)-2-(4-Methoxyphenoxyacetyl)-1-[N-(N-phenylglycyl)-L-prolyl]pyrrolidine] | – | – | – | – | – | – | 60 nM | 0% | 0% | 0% | 0% | 0 | 90%
